Measured values: US11440907B1 (Merck Patent GmbH, priority 2018, dated 2022)
Where two headings read alike, the source gives them in different places.

Tests used:
[1] = system: β-catenin-TCF-mediated reporter transcription activity in Colo 205 cells; assay: Colo 205 reporter assay (TCF/LEF promoter-driven firefly luciferase); assay type: cell-based; conditions: Colo 205 TCF/LEF luciferase reporter, 5 hours after compound addition, 384 well, read-out: Colo205 IC50
Source text: The compounds of the invention described herein were screened using the assay procedure for β-catenin-TCF-mediated reporter transcription activity described below.
Reporter cell lines were generated by stably transfecting cells of cancer cell lines (e.g., colon cancer) with a plasmid reporter construct (From SABiosciences, a QIAGEN company) that includes TCF/LEF promoter driving expression of the firefly luciferase gene. TCF/LEF reporter constructs were made in which TCF/LEF promoter, a promoter with optimal number of TCF/LEF binding sites designed by SABiosciences, was linked upstream of the firefly luciferase gene. This construct could also include a puromycin resistance gene as a selectable marker. This construct could also be used to stably transfect Colo 205 cells, a colon cancer cell line having a mutated APC gene that causes a constitutively active β-catenin. A control cell line was generated using another plasmid construct containing the luciferase gene under the control of a CMV basal promoter which is not activated by β-catenin.
Colo 205 Cultured cells with a stably transfected reporter construct were plated at approximately 10,000 cells per well into 384 well multi-well plates for twenty four hours. The testing compounds were then added to the wells in 2-fold serial dilutions using a twenty micromolar top concentration. A series of control wells for each cell type received only compound solvent. Five hours after the addition of compound, reporter activity for luciferase was assayed, by addition of the SteadyGlo luminescence reagent (Promega). The reporter luminescence activity was measured using Pherastar plate reader (BMG Labtech). Readings were normalized to DMSO only treated cells, and normalized activities were then used in the IC50 calculations. The Colo 205 reporter assay data are summarized in Table 3: A<0.3 μM; 0.3 μM≤B<1.0 μM; 1.0 μM≤C<5.0 μM; D≥5.0 μM.

[2] = system: XBP1(u)-luciferase splicing reporter in HepG2 hepatoma cells; assay: HepG2 XBP1 reporter assay (XBP1(u)-Luc); assay type: cell-based; conditions: Homo sapiens, 6 hours after compound addition, Table 3, read-out: XBP1-luc HepG2 1 EC50

Compound | IC50 ([1]; Homo sapiens) [nM] | EC50 [2] [nM] | IC50 [1] [nM]
COc1ccc(C2CCCCCN2c2cc(C)nc(N)n2)cc1 (racemic) [I-23, (+/−)-4-[2-(4-methoxyphenyl)azepan-1-yl]-6-methyl-pyrimidin-2-amine] | 300 to 1000 | ≥ 5000 | 
COc1cccc(F)c1C1CCCCCN1c1cc(C)nc(N)n1 (racemic) [I-50, (+/−)-4-[2-(2-fluoro-6-methoxy-phenyl)azepan-1-yl]-6-methyl-pyrimidin-2-amine] | 300 to 1000 | 600 to 2000 | 
Cc1cc(N2CCCOCC2c2ccc(OCC3(C)CCOC3)cc2Cl)nc(N)n1 (racemic) [I-229, (+/−)-4-[3-[2-chloro-4-[(3-methyltetrahydrofuran-3-yl)methoxy]phenyl]-1,4-oxazepan-4-yl]-6-methyl-pyrimidin-2-amine] | 300 to 1000 | < 600 | 
Cc1cc(N2CCCCCC2c2ccccc2)nc(N)n1 (racemic) [I-4, (+/−)-4-methyl-6-(2-phenylazepan-1-yl)pyrimidin-2-amine] | 300 to 1000 | 2000 to 5000 | 
CC(=O)Nc1cc([C@H]2COCCCN2c2cc(C)nc(N)n2)c(Cl)cc1F (single isomer, unassigned) [I-271] | 300 to 1000 | < 600 | 
COC(=O)c1ccc(C2COCCCN2c2cc(C)nc(N)n2)c(OC)c1 (centres unmarked) [I-290] | 300 to 1000 |  | 
COc1ccc(Cl)cc1[C@H]1COCCCN1c1cc(C)nc(N)n1 [I-132, (S)-4-(3-(5-chloro-2-methoxyphenyl)-1,4-oxazepan-4-yl)-6-methylpyrimidin-2-amine] | 300 to 1000 |  | 
COc1ccc(F)cc1C1COCCCN1c1cc(C)nc(N)n1 (centres unmarked) [I-284] | 300 to 1000 |  | 
Cc1cc(N2CCCCCC2c2ccccc2F)nc(N)n1 (centres unmarked) [I-36, 4-(2-(2-fluorophenyl)azepan-1-yl)-6-methylpyrimidin-2-amine] | 300 to 1000 |  | 
Cc1cc(N2CCCOCC2c2ccc(C(=O)N(C)C)cc2Cl)nc(N)n1 (centres unmarked) [I-293] | 300 to 1000 |  | 
Cc1cc(N2CCCOCC2c2ccc(S(C)(=O)=O)cc2Cl)nc(N)n1 (racemic) [I-66, (+/−)-4-(3-(2-chloro-4-(methylsulfonyl)phenyl)-1,4-oxazepan-4-yl)-6-methylpyrimidin-2-amine] | 1000 to 5000 |  | 
Cc1cc(N2CCCOCC2c2ccc(F)cc2Cl)nc(N)n1 (racemic) [I-63, (+/−)-4-[3-(2-chloro-4-fluoro-phenyl)-1,4-oxazepan-4-yl]-6-methyl-pyrimidin-2-amine] | 300 to 1000 |  | 
COC(=O)c1ccc(Cl)c(C2COCCCN2c2cc(C)nc(N)n2)c1 (racemic) [I-126, (+/−)-Methyl 3-(4-(2-amino-6-methylpyrimidin-4-yl)-1,4-oxazepan-3-yl)-4-chlorobenzoate] | 300 to 1000 |  | 
Cc1cc(N2CCCOCC2c2cc([S+](C)[O-])ccc2Cl)nc(N)n1 (centres unmarked) [I-122] | 300 to 1000 |  | 
COC(=O)c1ccc(OC)c(C2CCCCCN2c2cc(C)nc(N)n2)c1 (racemic) [I-111, (+/−)-Methyl 3-(1-(2-amino-6-methylpyrimidin-4-yl)azepan-2-yl)-4-methoxybenzoate] | 300 to 1000 |  | 
Cc1cc(N2CCCOCC2c2ccc(NS(C)(=O)=O)cc2Cl)nc(N)n1 (racemic) [I-139, (+/−)-N-[4-[4-(2-amino-6-methyl-pyrimidin-4-yl)-1,4-oxazepan-3-yl]-3-chloro-phenyl]methanesulfonamide] | 300 to 1000 |  | 
Cc1cc(N2CCCOCC2c2cc([S+](C)[O-])ccc2Cl)nc(N)n1 (centres unmarked) [I-123] |  |  | 300 to 1000
CNC(=O)c1ccc(Cl)c(C2COCCCN2c2cc(C)nc(N)n2)c1 (racemic) [I-129, (+/−)-3-(4-(2-amino-6-methylpyrimidin-4-yl)-1,4-oxazepan-3-yl)-4-chloro-N-methylbenzamide] | 300 to 1000 |  | 
COC(=O)c1ccc(C2COCCCN2c2cc(C)nc(N)n2)c(Cl)c1 (centres unmarked) [I-292] | 300 to 1000 |  | 
CNC(=O)c1ccc(C2COCCCN2c2cc(C)nc(N)n2)c(Cl)c1 (centres unmarked) [I-106] | < 300 |  | 
COc1cc(F)c(F)cc1C1COCCCN1c1cc(C)nc(N)n1 (centres unmarked) [I-286] | 300 to 1000 |  | 
CC(=O)Nc1ccc(C2COCCCN2c2cc(C)nc(N)n2)c(Cl)c1 (racemic) [I-141, (+/−)-N-(4-(4-(2-amino-6-methylpyrimidin-4-yl)-1,4-oxazepan-3-yl)-3-chlorophenyl)acetamide] | < 300 |  | 
Cc1cc(N2CCCOC[C@@H]2c2ccc(C(=O)N(C)C)cc2Cl)nc(N)n1 (single isomer, unassigned) [I-144] | 300 to 1000 |  | 
Cc1cc(N2CCCOC[C@@H]2c2cc(N)ccc2Cl)nc(N)n1 (single isomer, unassigned) [I-87] | < 300 |  | 
COc1ccc(Cl)cc1C1COCCCN1c1cc(C)nc(N)n1 (centres unmarked) [I-291] | 300 to 1000 |  | 
CNC(=O)c1ccc(OC)c([C@H]2CCCCCN2c2cc(C)nc(N)n2)c1 [I-148, (R)-3-(1-(2-amino-6-methylpyrimidin-4-yl)azepan-2-yl)-4-methoxy-N-methylbenzamide] | < 300 |  | 

Now from value to compound:

IC50 ([1]; Homo sapiens) [nM] | EC50 [2] [nM] | IC50 [1] [nM] | Compound
< 300 | < 600 |  | Cc1cc(N2CCCOCC2c2cc3c(cc2Cl)SCC(=O)N3)nc(N)n1 (racemic) [I-268, 6-[4-(2-amino-6-methyl-pyrimidin-4-yl)-1,4-oxazepan-3-yl]-7-chloro-4H-1,4-benzothiazin-3-one]
< 300 | < 600 |  | Cc1cc(N2CCCOCC2c2cc(NCCCO)ccc2Cl)nc(N)n1 (racemic) [I-249, (+/−)-3-[3-[4-(2-amino-6-methyl-pyrimidin-4-yl)-1,4-oxazepan-3-yl]-4-chloro-anilino]propan-1-ol]
< 300 | < 600 |  | Cc1cc(N2CCCOCC2c2ccc(NC(=O)C3(F)CCOC3)cc2Cl)nc(N)n1 (racemic) [I-279, (+/−)-N-(4-(4-(2-amino-6-methylpyrimidin-4-yl)-1,4-oxazepan-3-yl)-3-chlorophenyl)-3-fluorotetrahydrofuran-3-carboxamide]
< 300 | 600 to 2000 |  | COc1ccccc1C1CCCCCN1c1cc(C)nc(N)n1 (centres unmarked) [I-124]
< 300 | < 600 |  | COCC(OC)c1ccc(C2COCCCN2c2cc(C)nc(N)n2)c(Cl)c1 (centres unmarked) [I-307]
< 300 | < 600 |  | Cc1cc(N2CCCCCC2c2ccccc2Cl)nc(N)n1 (centres unmarked) [I-243]
< 300 | < 600 |  | Cc1cc(N2CCCOC[C@@H]2c2ccc(N3CC4(COC4)C3)cc2Cl)nc(N)n1 [I-259, 4-[(3S)-3-[2-chloro-4-(2-oxa-6-azaspiro[3.3]heptan-6-yl)phenyl]-1,4-oxazepan-4-yl]-6-methyl-pyrimidin-2-amine]
< 300 | < 600 |  | Cc1cc(N2CCCOCC2c2ccc(OC3COC3)cc2Cl)nc(N)n1 (racemic) [I-231, (+/−)-4-[3-[2-chloro-4-(oxetan-3-yloxy)phenyl]-1,4-oxazepan-4-yl]-6-methyl-pyrimidin-2-amine]
< 300 | < 600 |  | Cc1cc(N2CCCOC[C@@H]2c2ccc(NC3(C)COC3)cc2Cl)nc(N)n1 [I-266, 4-[(3S)-3-[2-chloro-4-[(3-methyloxetan-3-yl)amino]phenyl]-1,4-oxazepan-4-yl]-6-methyl-pyrimidin-2-amine]
< 300 |  |  | Cc1cc(N2CCCOCC2c2ccc(N)cc2Cl)nc(N)n1 (racemic) [I-140, (+/−)-4-[3-(4-amino-2-chloro-phenyl)-1,4-oxazepan-4-yl]-6-methyl-pyrimidin-2-amine]
< 300 |  |  | Cc1cc(N2CCCOCC2c2cc(O)ccc2Cl)nc(N)n1 (racemic) [I-147, (+/−)-3-[4-(2-amino-6-methyl-pyrimidin-4-yl)-1,4-oxazepan-3-yl]-4-chloro-phenol]
< 300 |  |  | Cc1cc(N2CCCOC[C@@H]2c2ccccc2Cl)nc(N)n1 (single isomer, unassigned) [I-31]
< 300 |  |  | Cc1cc(N2CCC(C)OCC2c2ccccc2Cl)nc(N)n1 (centres unmarked) [I-301]
< 300 |  |  | Cc1cc(N2CCCCC[C@@H]2c2cc(OC(C)C)ccc2Cl)nc(N)n1 (single isomer, unassigned) [I-108]
< 300 |  |  | Cc1cc(N2CCCOCC2c2ccccc2F)nc(N)n1 (racemic) [I-32, (+/−)-4-[3-(2-fluorophenyl)-1,4-oxazepan-4-yl]-6-methyl-pyrimidin-2-amine]
< 300 |  |  | COc1cc(S(C)(=O)=O)ccc1[C@H]1CCCCCN1c1cc(C)nc(N)n1 (single isomer, unassigned) [I-99, 4-[2-(2-methoxy-4-methylsulfonyl-phenyl)azepan-1-yl]-6-methyl-pyrimidin-2-amine]
< 300 |  |  | CC(=O)Nc1ccc(Cl)c(C2COCCCN2c2cc(C)nc(N)n2)c1 (centres unmarked) [I-84]
< 300 |  |  | Cc1cc(N2CCCOCC2c2ccccc2Cl)nc(N)n1 (racemic) [I-19, (+/−)-4-[3-(2-chlorophenyl)-1,4-oxazepan-4-yl]-6-methyl-pyrimidin-2-amine]
< 300 |  |  | Cc1cc(N2CCCOCC2c2cc(NC(=O)C(F)(F)F)ccc2Cl)nc(N)n1 (racemic) [I-159, (+/−)-N-[3-[4-(2-amino-6-methyl-pyrimidin-4-yl)-1,4-oxazepan-3-yl]-4-chloro-phenyl]-2,2,2-trifluoro-acetamide]
